Reference: patent publication US8765814B2, “N-hydroxyformamide derivative and medicament containing same” (Kaken Pharmaceutical Co., Ltd., priority 2010, dated 2014)
pIC50: −log10 of the molar value.

Legend:
ADAM17 = target: T1, ADAM17 (Homo sapiens, UniProt P78536); test: ADAM17 inhibition test; type: biochemical; details: recombinant ADAM17 (cDNA from THP-1 cells), fluorescent synthetic substrate Nma-[…]Dnp-D-Arg-NH2, 37° C., 1.5 hours; read-out: IC50 Value (50% inhibitory concentration against ADAM17)
T1 construct: made in house; host or cells: mammal cells or insect cells (not specified which)
Description: The nucleotide sequence of ADAM17 was reported by Moss et al. (Moss, M. L. et al., Nature 1997, 385, 733-736). Accordingly, the cDNA was obtained from THP-1 cells of a human monocytic cell line in the usual way, and this was inserted into an expression vector, and thereafter the vector was transformed in mammal cells or insect cells to thereby make the cells express ADAM17.
In the ADAM17 inhibition test, ADAM17 obtained in the manner as above was used as an enzyme, and a fluorescent synthetic substrate Nma (N-methylanthranylic acid)-[…]Dnp (dinitrophenyl)-D-Arg-NH2 containing the ADAM17-cleaved sequence of a membrane-bound TNF was used as the substrate. Using these in the test, the ADAM17 activity in the presence or absence of the test substance was measured. The method of ADAM17 inhibition test is mentioned below.
(§1) Concretely, 90 μl of an enzyme liquid as prepared to have 14 units in an assay buffer A (50 mM tris-hydrochloride buffer (pH 7.5) containing 200 mM sodium chloride, 5 mM calcium chloride, 10 μM zinc sulfate, 0.004% sodium azide, and 2 mg/mL bovine serum albumin) (the amount of enzyme capable of decomposing 1 pmol of substrate at 25° C. for 1 minute was defined to be 1 unit), and 90 μL a fluorescent synthetic substrate as prepared to be 20 μM in an assay buffer B (50 mM tris-hydrochloride buffer (pH 7.5) containing 200 mM sodium chloride, 5 mM calcium chloride, 10 μM zinc sulfate, 0.004% sodium azide, and 0.05% PLURONIC F-68) were mixed, and reacted at 37° C. for 1.5 hours. Subsequently, using a fluorescent intensity meter (Fluoroskan Ascent), the reaction liquid was analyzed at an excitation wavelength of 355 nm and at a measuring wavelength of 460 nm to determine the enzymatic activity therein.
(§2) From the enzymatic activity in the presence or absence of the test compound, the inhibitory percentage was determined, and the 50% inhibitory concentration (IC50) of the test compound was calculated.
The 50% inhibitory concentration against ADAM17 of the N-hydroxyformamide derivative of the invention, as determined in this test, was shown in Table 1.

ADAM10 = target: T2, ADAM10 (Homo sapiens, UniProt O14672); test: ADAM10 inhibition test; type: biochemical; details: recombinant ADAM10 (cDNA from THP-1 cells), fluorescent synthetic substrate Nma-[…]Dnp-D-Arg-NH2, 25° C., 5 hours; read-out: IC50 Value (50% inhibitory concentration against ADAM10)
T2 construct: made in house; host or cells: mammal cells or insect cells (not specified which)
T2 sequence (O14672 214-748): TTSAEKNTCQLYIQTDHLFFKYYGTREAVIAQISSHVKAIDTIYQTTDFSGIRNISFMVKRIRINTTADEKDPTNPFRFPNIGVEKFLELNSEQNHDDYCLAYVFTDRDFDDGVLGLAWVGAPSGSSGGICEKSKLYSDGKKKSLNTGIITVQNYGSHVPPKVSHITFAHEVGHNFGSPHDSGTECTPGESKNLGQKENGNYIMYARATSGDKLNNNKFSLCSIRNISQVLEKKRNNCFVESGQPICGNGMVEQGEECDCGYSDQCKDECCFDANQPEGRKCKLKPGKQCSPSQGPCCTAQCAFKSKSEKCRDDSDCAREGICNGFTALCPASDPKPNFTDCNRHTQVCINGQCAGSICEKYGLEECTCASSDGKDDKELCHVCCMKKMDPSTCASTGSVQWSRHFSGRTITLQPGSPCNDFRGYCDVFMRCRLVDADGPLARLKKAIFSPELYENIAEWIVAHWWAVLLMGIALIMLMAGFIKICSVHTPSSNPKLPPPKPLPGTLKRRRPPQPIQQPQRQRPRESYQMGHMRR
Description: The cDNA of ADAM10 was obtained from THP-1 cells in the usual way, and this was inserted into an expression vector, and thereafter the vector was transformed in mammal cells or insect cells to thereby make the cells express ADAM10. In the ADAM10 inhibition test, ADAM10 obtained in the manner as above was used as an enzyme, and a fluorescent synthetic substrate Nma (N-methylanthranylic acid)-[…]Dnp (dinitrophenyl)-D-Arg-NH2 was used as the substrate. Using these in the test, the ADAM10 activity in the presence or absence of the test substance was measured. The method of ADAM10 inhibition test is mentioned below.
as §1, with “liquid” for “liquid as”, “using” for “to have 14 units in”, “albumin),” for “albumin) (the amount of enzyme capable of decomposing 1 pmol of substrate at 25° C. for 1 minute was defined to be 1 unit),”, “25°” for “37°”, “5” for “1.5”
as §2
The 50% inhibitory concentration against ADAM10 of the N-hydroxyformamide derivative of the invention, as determined in this test, was shown in Table 2.

T1 sequence (P78536 215-824): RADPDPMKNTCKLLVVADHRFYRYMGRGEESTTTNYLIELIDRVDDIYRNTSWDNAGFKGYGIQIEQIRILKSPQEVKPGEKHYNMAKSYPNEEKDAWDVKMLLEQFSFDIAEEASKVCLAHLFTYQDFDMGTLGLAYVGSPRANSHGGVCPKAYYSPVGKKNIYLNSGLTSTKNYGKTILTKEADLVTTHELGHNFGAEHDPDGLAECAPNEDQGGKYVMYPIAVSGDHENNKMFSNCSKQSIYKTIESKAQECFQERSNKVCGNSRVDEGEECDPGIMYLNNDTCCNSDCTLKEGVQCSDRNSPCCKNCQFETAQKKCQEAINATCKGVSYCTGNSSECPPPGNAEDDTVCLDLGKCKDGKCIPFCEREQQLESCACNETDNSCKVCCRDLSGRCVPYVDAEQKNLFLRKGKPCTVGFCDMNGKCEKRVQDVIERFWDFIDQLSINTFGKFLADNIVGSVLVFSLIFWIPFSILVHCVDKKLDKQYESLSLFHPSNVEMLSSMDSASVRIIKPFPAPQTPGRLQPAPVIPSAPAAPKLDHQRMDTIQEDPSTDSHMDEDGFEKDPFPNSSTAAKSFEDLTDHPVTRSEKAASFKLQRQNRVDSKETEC

Compound | pIC50 (ADAM17) | pIC50 (ADAM10)
CC#CCOc1ccc(S(=O)(=O)CC(c2ccc(CN(CC)CC)cc2)N(O)C=O)cc1 (centres unmarked) [Compound I-1, N-[2-(4-But-2-ynyloxybenzenesulfonyl)-1-(4-diethylaminomethylphenyl)ethyl]-N-hydroxyformamide] | 8.28 | 7.89
CC#CCOc1ccc(S(=O)(=O)CC(c2ccc(CN(C)C)cc2)N(O)C=O)cc1 (centres unmarked) [Compound I-2, N-[2-(4-But-2-ynyloxybenzenesulfonyl)-1-(4-dimethylaminomethylphenyl)ethyl]-N-hydroxyformamide] | 8.14 | 7.66
CC#CCOc1ccc(S(=O)(=O)CC(c2ccc(CNC(=O)COC)cc2)N(O)C=O)cc1 (centres unmarked) [Compound I-3, N-{4-[2-(4-But-2-ynyloxybenzenesulfonyl)-1-(formylhydroxyamino)ethyl]benzyl}-2-methoxyacetamide] | 8.09 | 7.38
CC#CCOc1ccc(S(=O)(=O)CC(c2ccc(CNS(C)(=O)=O)cc2)N(O)C=O)cc1 (centres unmarked) [Compound I-4, N-{4-[2-(4-But-2-ynyloxybenzenesulfonyl)-1-(formylhydroxyamino)ethyl]benzyl}methanesulfonamide] | 8.24 | 7.40
CC#CCOc1ccc(S(=O)(=O)CC(c2ccc(CNC(=O)c3ccccc3)cc2)N(O)C=O)cc1 (centres unmarked) [Compound I-5, N-{4-[2-(4-But-2-ynyloxybenzenesulfonyl)-1-(formylhydroxyamino)ethyl]benzyl}benzamide] | 8.14 | 7.72
CC#CCOc1ccc(S(=O)(=O)CC(c2ccc(CN3CCOCC3)cc2)N(O)C=O)cc1 (centres unmarked) [Compound I-6, N-[2-(4-But-2-ynyloxybenzenesulfonyl)-1-(4-morpholin-4-ylmethylphenyl)ethyl]-N-hydroxyformamide] | 7.74 | 7.15
CCC#CCOc1ccc(S(=O)(=O)CC(c2ccc(CN3CCOCC3)cc2)N(O)C=O)cc1 (centres unmarked) [Compound I-7, N-Hydroxy-N-[1-(4-morpholin-4-ylmethylphenyl)-2-(4-pent-2-ynyloxybenzenesulfonyl)ethyl]formamide] | 7.26 | 7.05
